{
  "source": "patent US10040798B2",
  "about": "“Pyrrolopyridazine inhibitors of IRAK4 activity” (MERCK SHARP & DOHME CORP., priority 2015, dated 2018)",
  "note": "Counter-ions that a name gives are not always drawn.",
  "data": [
    {"target": "IRAK4 (Homo sapiens (Human), UniProt Q9NWZ3)", "sequence (Q9NWZ3 whole entry)": "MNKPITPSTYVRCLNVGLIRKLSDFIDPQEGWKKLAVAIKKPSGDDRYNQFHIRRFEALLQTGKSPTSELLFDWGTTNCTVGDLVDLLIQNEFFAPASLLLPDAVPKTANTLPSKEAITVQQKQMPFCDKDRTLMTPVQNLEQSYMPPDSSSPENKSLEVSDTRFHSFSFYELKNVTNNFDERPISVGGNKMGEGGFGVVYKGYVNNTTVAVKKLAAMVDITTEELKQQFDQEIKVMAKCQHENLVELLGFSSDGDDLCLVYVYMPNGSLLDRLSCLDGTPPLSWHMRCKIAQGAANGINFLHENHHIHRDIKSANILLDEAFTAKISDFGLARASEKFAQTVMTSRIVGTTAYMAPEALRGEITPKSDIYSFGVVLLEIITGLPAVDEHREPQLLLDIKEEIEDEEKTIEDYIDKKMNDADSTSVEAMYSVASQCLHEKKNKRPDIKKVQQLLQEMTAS", "assay": "IRAK4 Kinase Assay (IMAP fluorescence polarization)", "assay_type": "biochemical", "conditions": "0.5 nM GST tagged IRAK4, 100 μM ATP, 30 minutes at 25° C., IMAP FP", "method": "The kinase activity of IRAK4 is determined by its ability to catalyze the phosphorylation of a fluorescent polypeptide substrate. The extent of phosphorylation is measured using the IMAP technology (Molecular Devices) where the phosphorylated fluorescent substrate binds to the large M (III)-based nanoparticles which reduces the rotational speed of the substrate and thus increases its fluorescent polarization (FP).\n20 μL reaction mixture contains 10 mM TriHCl, pH 7.2, 0.5 nM GST tagged IRAK4 (SignalChem), 100 nM fluorescent peptide substrate (RP7030, Molecular Devices), 100 μM ATP, 1 mM DDT, 1 mM MgCl2, and 0.01% Tween 20. The reaction is initiated by the addition of ATP. After incubation for 30 minutes at 25° C., 60 μL of Progressive IMAP Reagent (Molecular Devices) is added to stop the reaction. Change in RP7030's FP is determined by a FP reader (Analyst HT, LJL BioSystems).", "units": {"IC50": "nM"}, "values": [
      {"smiles": "O=C(Nc1ccsc1C(F)(F)F)c1ccc2ccc(N3C[C@H]4CC[C@@H]3CN4)nn12", "note": "(single isomer, unassigned) [Example 114, 2-[(1S,4S)- or (1R,4R)-2,5-diazabicyclo[2.2.2]oct-2-yl]-N-[2-(trifluoromethyl)thiophen-3-yl]pyrrolo[1,2-b]pyridazine-7-carboxamide trifluoroacetate]", "IC50": 1770},
      {"smiles": "Cn1cc(NC(=O)c2ccc3ccc(N4C[C@@H]5CNC[C@H]4C5)nn23)c(C(F)F)n1", "note": "(single isomer, unassigned) [Example 125, 2-[(1S,5R)- or (1R,5S)-3,6-diazabicyclo[3.2.1]oct-6-yl]-N-[3-(difluoromethyl)-1-methyl-1H-pyrazol-4-yl]pyrrolo[1,2-b]pyridazine-7-carboxamide]", "IC50": 5},
      {"smiles": "Cn1cc(NC(=O)c2ccc3ccc(N4C[C@H]5CNC[C@@H]4C5)nn23)c(C(F)F)n1", "note": "(single isomer, unassigned) [Example 126, 2-[(1S,5R)- or (1R,5S)-3,6-diazabicyclo[3.2.1]oct-6-yl]-N-[3-(difluoromethyl)-1-methyl-1H-pyrazol-4-yl]pyrrolo[1,2-b]pyridazine-7-carboxamide]", "IC50": 14},
      {"smiles": "Cn1cc(NC(=O)c2ccc3ccc(N[C@@H]4CCCC[C@@H]4N)nn23)c(C(F)(F)F)n1", "note": "[Example 1, 2-(((1R,2S)-2-Aminocyclohexyl)amino)-N-(1-methyl-3-(trifluoromethyl)-1H-pyrazol-4-yl)pyrrolo[1,2-b]pyridazine-7-carboxamide]", "IC50": 5},
      {"smiles": "Cn1cc(NC(=O)c2ccc3ccc(N[C@@H]4CCCC[C@@H]4O)nn23)c(C(F)(F)F)n1", "note": "[Example 5, 2-{[(1R,2S)-2-hydroxycyclo-hexyl]amino}-N-[1-methyl-3-(trifluoromethyl)-1H-pyrazol-4-yl]pyrrolo[1,2-b]pyridazine-7-carboxamide trifluoroacetate]", "IC50": 122},
      {"smiles": "Cn1cc(NC(=O)c2ccc3ccc(N[C@@H]4CCCNC4)nn23)c(C(F)(F)F)n1", "note": "[Example 6, N-[1-methyl-3-(trifluoromethyl)-1H-pyrazol-4-yl]-2-[(3R)-piperidin-3-ylamino]pyrrolo[1,2-b]pyridazine-7-carboxamide trifluoroacetate]", "IC50": 1},
      {"smiles": "Cn1cc(NC(=O)c2ccc3ccc(N[C@@H]4CCCC(F)(F)[C@@H]4N)nn23)c(C(F)(F)F)n1", "note": "[Example 7, 2-{[(1R,2R)-2-amino-3,3-difluorocyclo-hexyl]amino}-N-[1-methyl-3-(trifluoromethyl)-1H-pyrazol-4-yl]pyrrolo[1,2-b]pyridazine-7-carboxamide trifluoroacetate]", "IC50": 189},
      {"smiles": "Cn1cc(NC(=O)c2ccc3ccc(N4CC5CCC4CN5)nn23)c(C(F)(F)F)n1", "note": "(stereo not shown) [Example 8, 2-(2,5-diazabicyclo[2.2.2]oct-2-yl)-N-[1-methyl-3-(trifluoromethyl)-1H-pyrazol-4-yl]pyrrolo[1,2-b]pyridazine-7-carboxamide]", "IC50": 19},
      {"smiles": "Cn1cc(NC(=O)c2ccc3ccc(N4CCNCC5(CC5)C4)nn23)c(C(F)(F)F)n1", "note": "[Example 9, 2-(5,8-diazaspiro[2.6]non-5-yl)-N-[1-methyl-3-(trifluoromethyl)-1H-pyrazol-4-yl]pyrrolo[1,2-b]pyridazine-7-carboxamide trifluoroacetate]", "IC50": 27},
      {"smiles": "Cn1cc(NC(=O)c2ccc3ccc(N4CCCNCC4)nn23)c(C(F)(F)F)n1", "note": "[Example 10, 2-(1,4-diazepan-1-yl)-N-[1-methyl-3-(trifluoromethyl)-1H-pyrazol-4-yl]pyrrolo[1,2-b]pyridazine-7-carboxamide trifluoroacetate]", "IC50": 33},
      {"smiles": "Cn1cc(NC(=O)c2ccc3ccc(N4CC5CCC4CN5)nn23)c(C(F)(F)F)n1", "note": "(stereo not shown) [Example 11, 2-(2,5-diazabicyclo[2.2.2]oct-2-yl)-N-[1-methyl-3-(trifluoromethyl)-1H-pyrazol-4-yl]pyrrolo[1,2-b]pyridazine-7-carboxamide]", "IC50": 27},
      {"smiles": "Cn1cc(NC(=O)c2ccc3ccc(N4CCC[C@@H](N)C4)nn23)c(C(F)(F)F)n1", "note": "[Example 12, 2-[(3R)-3-aminopiperidin-1-yl]-N-[1-methyl-3-(trifluoromethyl)-1H-pyrazol-4-yl]pyrrolo[1,2-b]pyridazine-7-carboxamide trifluoroacetate]", "IC50": 0.5},
      {"smiles": "Cn1cc(NC(=O)c2ccc3ccc(N4CCC[C@@H](N)C4)nn23)c(C(F)F)n1", "note": "[Example 13, 2-[(3R)-3-aminopiperidin-1-yl]-N-[3-(difluoromethyl)-1-methyl-1H-pyrazol-4-yl]pyrrolo[1,2-b]pyridazine-7-carboxamide trifluoroacetate]", "IC50": 0.5},
      {"smiles": "Cn1cc(NC(=O)c2ccc3ccc(N4CCNCC4)nn23)c(C(F)F)n1", "note": "[Example 14, N-[3-(difluoromethyl)-1-methyl-1H-pyrazol-4-yl]-2-piperazin-1-ylpyrrolo[1,2-b]pyridazine-7-carboxamide trifluoroacetate]", "IC50": 2},
      {"smiles": "Cn1cc(NC(=O)c2ccc3ccc(N4CCCNCC4)nn23)c(C(F)F)n1", "note": "[Example 15, 2-(1,4-diazepan-1-yl)-N-[3-(difluoromethyl)-1-methyl-1H-pyrazol-4-yl]pyrrolo[1,2-b]pyridazine-7-carboxamide trifluoroacetate]", "IC50": 2},
      {"smiles": "Cn1cc(NC(=O)c2ccc3ccc(N[C@@H]4CCCNC4)nn23)c(C(F)F)n1", "note": "[Example 16, N-[3-(difluoromethyl)-1-methyl-1H-pyrazol-4-yl]-2-[(3R)-piperidin-3-ylamino]pyrrolo[1,2-b]pyridazine-7-carboxamide trifluoroacetate]", "IC50": 0.9},
      {"smiles": "Cn1cc(NC(=O)c2ccc3ccc(N4CC5CCC4CN5)nn23)c(C(F)F)n1", "note": "(stereo not shown) [Example 17, 2-(2,5-diazabicyclo[2.2.2]oct-2-yl)-N-[3-(difluoromethyl)-1-methyl-1H-pyrazol-4-yl]pyrrolo[1,2-b]pyridazine-7-carboxamide trifluoroacetate]", "IC50": 4},
      {"smiles": "Cn1cc(NC(=O)c2ccc3ccc(N4CCNCC5(CC5)C4)nn23)c(C(F)F)n1", "note": "[Example 18, 2-(5,8-diazaspiro[2.6]non-5-yl)-N-[3-(difluoromethyl)-1-methyl-1H-pyrazol-4-yl]pyrrolo[1,2-b]pyridazine-7-carboxamide trifluoroacetate]", "IC50": 2},
      {"smiles": "Cn1cc(NC(=O)c2ccc3ccc(N[C@@H]4CCCC[C@@H]4N)nn23)c(C(F)F)n1", "note": "[Example 19, 2-{[(1R,2S)-2-aminocyclo-hexyl]amino}-N-[3-(difluoromethyl)-1-methyl-1H-pyrazol-4-yl]pyrrolo[1,2-b]pyridazine-7-carboxamide trifluoroacetate]", "IC50": 1},
      {"smiles": "Cn1cc(NC(=O)c2ccc3ccc(N[C@@H]4CCCC[C@@H]4O)nn23)c(C(F)F)n1", "note": "[Example 20, N-[3-(difluoromethyl)-1-methyl-1H-pyrazol-4-yl]-2-{[(1R,2S)-2-hydroxycyclohexyl]amino}pyrrolo[1,2-b]pyridazine-7-carboxamide trifluoroacetate]", "IC50": 11},
      {"smiles": "Cn1cc(NC(=O)c2ccc3ccc(N4CCCNCC4)nn23)c(Br)n1", "note": "[Example 21, N-(3-bromo-1-methyl-1H-pyrazol-4-yl)-2-(1,4-diazepan-1-yl)pyrrolo[1,2-b]pyridazine-7-carboxamide trifluoroacetate]", "IC50": 32},
      {"smiles": "Cn1cc(NC(=O)c2ccc3ccc(N[C@@H]4CCCC[C@@H]4N)nn23)c(Br)n1", "note": "[Example 22, 2-{[(1R,2S)-2-amino-cyclohexyl]amino}-N-(3-bromo-1-methyl-1H-pyrazol-4-yl)pyrrolo[1,2-b]pyridazine-7-carboxamide trifluoroacetate]", "IC50": 2},
      {"smiles": "Cn1cc(NC(=O)c2ccc3ccc(N4CCCNCC4)nn23)c(Cl)n1", "note": "[Example 23, N-(3-chloro-1-methyl-1H-pyrazol-4-yl)-2-(1,4-diazepan-1-yl)pyrrolo[1,2-b]pyridazine-7-carboxamide trifluoroacetate]", "IC50": 20},
      {"smiles": "Cn1cc(NC(=O)c2ccc3ccc(NC4CCCCNC4)nn23)c(C(F)F)n1", "note": "(stereo not shown) [Example 24, 2-(azepan-3-ylamino)-N-[3-(difluoromethyl)-1-methyl-1H-pyrazol-4-yl]pyrrolo[1,2-b]pyridazine-7-carboxamide trifluoroacetate]", "IC50": 2},
      {"smiles": "Cn1cc(NC(=O)c2ccc3ccc(N[C@@H]4CCCC[C@@H]4N)nn23)c(Cl)n1", "note": "[Example 25, 2-{[(1R,2S)-2-aminocyclohexyl]amino}-N-(3-chloro-1-methyl-1H-pyrazol-4-yl)pyrrolo[1,2-b]pyridazine-7-carboxamide trifluoroacetate]", "IC50": 1},
      {"smiles": "Cn1cc(NC(=O)c2ccc3ccc(N4CC5CCC4CN5)nn23)c(Cl)n1", "note": "(stereo not shown) [Example 26, N-(3-chloro-1-methyl-1H-pyrazol-4-yl)-2-(2,5-diazabicyclo[2.2.2]oct-2-yl)pyrrolo[1,2-b]pyridazine-7-carboxamide trifluoroacetate]", "IC50": 28},
      {"smiles": "Cn1cc(NC(=O)c2ccc3ccc(N4CC5CCC4CN5)nn23)c(Br)n1", "note": "(stereo not shown) [Example 27, N-(3-bromo-1-methyl-1H-pyrazol-4-yl)-2-(2,5-diazabicyclo[2.2.2]oct-2-yl)pyrrolo[1,2-b]pyridazine-7-carboxamide trifluoroacetate]", "IC50": 24},
      {"smiles": "Cn1cc(NC(=O)c2ccc3ccc(N[C@@H]4CCCC(F)(F)[C@@H]4N)nn23)c(C(F)F)n1", "note": "[Example 28, 2-{[(1R,2R)-2-amino-3,3-difluorocyclohexyl]amino}-N-[3-(difluoromethyl)-1-methyl-1H-pyrazol-4-yl]pyrrolo[1,2-b]pyridazine-7-carboxamide trifluoroacetate]", "IC50": 34}
    ]}
  ]
}
